Assay results published in patent US9440964B2, “Pesticidal compositions and processes related thereto” (Dow AgroSciences LLC, priority 2011, dated 2016).

Columns and labels:
Type in all cases: in vivo
[1] = system: BAW (Spodoptera exigua); assay: Bioassay on Beet Armyworm (BAW), 128-well diet tray; settings: Spodoptera exigua, 168 h; percent mortality, second instar larvae, 50 μg/cm^2 on diet, five to seven days; read-out: Rating BAW
In short: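 Second-instar Spodoptera exigua larvae (one to five per well) placed on artificial diet surface-treated with 50 μg/cm^2 compound in 90:10 acetone-water, dried, eight wells per compound. Held 5–7 days at 25 °C, 14:10 light-dark; percent mortality averaged across wells.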

[2] = system: CEW (Helicoverpa zea); assay: Bioassay on Corn Earworm (CEW), 128-well diet tray; settings: Helicoverpa zea, 168 h, percent mortality, second instar larvae, five to seven days; for pest or weed control at 0.5 µg/cm2: 0.5 μg/cm^2 on diet, read-out: Rating CEW (*Tested at 0.5 μg/cm^2); for pest or weed control at 50 µg/cm2: 50 μg/cm^2 on diet, read-out: Rating CEW
In short: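 Helicoverpa zea (corn earworm) was tested in a 128-well diet tray. Each 3 mL well received one to five second instar larvae on diet treated with the test material in an acetone-water mixture, applied to eight wells and dried. Trays were sealed with clear self-adhesive covers, kept at 25° C., 14:10 light-dark for five to seven days, then percent mortality was averaged across eight wells.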

[3] = system: Yellow Fever Mosquito YFM (Aedes aegypti); assay: Bioassay on Yellow Fever Mosquito (YFM) larvae, 96-well plate; settings: mortality of about 1 day-old larvae, scored after 3 days
Method: Certain molecules disclosed in this document were tested against YFM using procedures described in the following paragraph. In the reporting of the results, the “YFM Rating Table” was used (See Table Section).
Master plates containing 400 μg of a molecule dissolved in 100 μL of dimethyl sulfoxide (DMSO) (equivalent to a 4000 ppm solution) are used. A master plate of assembled molecules contains 15 μL per well. To this plate, 135 μL of a 90:10 water:acetone mixture is added to each well. A robot (Biomek® NXP Laboratory Automation Workstation) is programmed to dispense 15 μL aspirations from the master plate into an empty 96-well shallow plate (“daughter” plate). There are 6 reps (“daughter” plates) created per master. The created daughter plates are then immediately infested with YFM larvae.
The day before plates are to be treated, mosquito eggs are placed in Millipore water containing liver powder to begin hatching (4 g. into 400 ml). After the daughter plates are created using the robot, they are infested with 220 μL of the liver powder/larval mosquito mixture (about 1 day-old larvae). After plates are infested with mosquito larvae, a non-evaporative lid is used to cover the plate to reduce drying. Plates are held at room temperature for 3 days prior to grading. After 3 days, each well is observed and scored based on mortality.
The results are indicated in the table entitled “Table ABC: Biological Results” (See Table Section).

Row | SMILES | pest or weed control at 50 µg/cm2 [1] [%] | pest or weed control at 0.5 µg/cm2 [2] [%] | Rating YFM [3] | pest or weed control at 50 µg/cm2 [2] [%]
1 | CC(C)c1cccc(Cl)c1N1C(=O)CS/C1=N\C(=O)Nc1ccc(-c2ncn(-c3ccc(OC(F)(F)F)cc3)n2)cc1 [Molecule A85] | 50 to 100 | 50 to 100 | A (80-100) | –
2 | Cc1ccccc1N/C(S)=N/C(=O)Nc1ccc(-c2ncn(-c3ccc(OC(F)(F)F)cc3)n2)cc1 [Molecule A80] | 50 to 100 | – | B (More than 0-Less than 80) | 50 to 100
3 | CCC(C)c1ccccc1N1C(=O)CS/C1=N\C(=O)Nc1ccc(-c2ncn(-c3ccc(OC(F)(F)F)cc3)n2)cc1 (stereo not drawn) [Molecule A18, (Z)-1-(3-(2-(sec-butyl)phenyl)-4-oxothiazolidin-2-ylidene)-3-(4-(1-(4-(trifluoromethoxy)phenyl)-1H-1,2,4-triazol-3-yl)phenyl)urea] | 50 to 100 | – | A (80-100) | 50 to 100
4 | COc1ccc(N/C(=N\C(=O)Nc2ccc(-c3ncn(-c4ccc(OC(F)(F)F)cc4)n3)cc2)SCOC(=O)C(C)C)cc1 [Molecule A62] | 50 to 100 | – | A (80-100) | 50 to 100
5 | COc1ccc(N/C(O)=C/C(=O)Nc2ccc(-c3ncn(-c4ccc(OC(F)(F)F)cc4)n3)cc2)c(C(C)C)c1 [Molecule A34, (Z)-3-hydroxy-3-(2-isopropyl-4-methoxyphenylamino)-N-(4-(1-(4-(trifluoromethoxy)phenyl)-1H-1,2,4-triazol-3-yl)phenyl)acrylamide] | 50 to 100 | – | A (80-100) | 50 to 100
6 | Cc1ccc(N2C(=O)CS/C2=N\C(=O)Nc2ccc(-c3ncn(-c4ccc(OC(F)(F)F)cc4)n3)cc2)c(Cl)c1 [Molecule A77] | 50 to 100 | 50 to 100 | B (More than 0-Less than 80) | –
7 | Cc1cc(-c2ncn(-c3ccc(OC(F)(F)F)cc3)n2)ccc1NC(=O)/N=C1\SCC(=O)N1c1ccccc1C(C)C [Molecule A123, (Z)-1-(3-(2-isopropylphenyl)-4-oxothiazolidin-2-ylidene)-3-(2-methyl-4-(1-(4-(trifluoromethoxy)phenyl)-1H-1,2,4-triazol-3-yl)phenyl)urea] | 50 to 100 | 50 to 100 | A (80-100) | –
8 | Cc1ccccc1N1C(=O)CS/C1=N\C(=O)Nc1ccc(-c2ncn(-c3ccc(OC(F)(F)F)cc3)n2)cc1 [Molecule A65] | 50 to 100 | 50 to 100 | A (80-100) | –
9 | CCc1ccccc1N1C(=O)CS/C1=N\C(=O)Nc1ccc(-c2ncn(-c3ccc(OC(F)(F)F)cc3)n2)cc1 [Molecule A35] | 50 to 100 | – | A (80-100) | 50 to 100
10 | CCCc1ccccc1N1C(=O)CS/C1=N\C(=O)Nc1ccc(-c2ncn(-c3ccc(OC(F)(F)F)cc3)n2)cc1 [Molecule A69] | 50 to 100 | 50 to 100 | A (80-100) | –
11 | Cc1cc(-c2ncn(-c3ccc(OC(F)(F)F)cc3)n2)ccc1NC(=O)/N=C(\S)Nc1ccccc1C(C)C [Molecule A122, N-[[(2-isopropyllphenyl)amino]thioxomethyl]-N′-(2-methyl(4-(1-(4-(trifluoromethoxy)phenyl)-1H-1,2,4-triazol-3-yl)phenyl))urea] | 50 to 100 | 50 to 100 | A (80-100) | –
12 | COc1ccc(N2C(=O)CS/C2=N\C(=O)Nc2ccc(-c3ncn(-c4ccc(OC(F)(F)F)cc4)n3)cc2)c(C)c1 [Molecule A110] | 50 to 100 | 50 to 100 | A (80-100) | –
